Experimental data taken from paper PMC4747340, “A new class of small molecule estrogen receptor-alpha antagonists that overcome anti-estrogen resistance” (Oncotarget, 2015).

Legend:
[1] = biological target: T1, ER-α (Homo sapiens, UniProt P03372); assay: E2-stimulated ER-α activity, ERE-TK-Luc reporter in transfected DU-145 cells; assay type: cell-based; details: DU-145 transfected with ER-α, E2 10 nM, compound 20 μM, 24 hr
T1 construct: expressed in transfected cells; host or cells: DU-145
Description: Figure 12 Compound 35446 inhibits the activity of ER-β Subconfluent proliferating DU-145 cells in 24-well dishes were transfected overnight with the ER=α or ER=β expression vector plus the ERE-TK-Luc reporter plasmid (0.25 μg per plasmid/well), washed, and allowed to recover for several hours in fresh culture medium. The cells were then post-incubated for 24 hr to allow gene expression, after which they were treated ± E2 (10 nM) and ± compound 35446 (20 μM) (or compound B2 as a negative control) for 24 hr and assayed for luciferase activity. Luciferase activity is expressed relative to the no E2 control. Values are means ± SEMs of four replicate wells. The data shown in each panel are representative of three independent experiments.
Subconfluent cells in 24-well dishes were transfected overnight with 0.25 μg of each indicated vector plus the ERE-TK-Luc reporter in serum-free DMEM containing Lipofectamine2000 (Life Technologies, Washington, DC). Total transfected DNA was kept constant by addition of control vector. The cells were washed, incubated in phenol red-free DMEM containing 5% charcoal-stripped serum (obtained from the Tissue Culture Shared Resource) (0.2 ml/well) ± E2 (10 nM) ± the indicated compound for 24-hr, and harvested for luciferase assays. For each assay condition was tested in quadrupicate. […]

[2] = biological target: T2, BRCA1: ER complex (Homo sapiens, UniProt P03372); assay: immunoprecipitation-Western blotting of BRCA1:ER complex in MCF-7 cells; assay type: cell-based
T2 construct: endogenous in cells; host or cells: MCF-7
T2 sequence (P03372 whole entry, one chain of several): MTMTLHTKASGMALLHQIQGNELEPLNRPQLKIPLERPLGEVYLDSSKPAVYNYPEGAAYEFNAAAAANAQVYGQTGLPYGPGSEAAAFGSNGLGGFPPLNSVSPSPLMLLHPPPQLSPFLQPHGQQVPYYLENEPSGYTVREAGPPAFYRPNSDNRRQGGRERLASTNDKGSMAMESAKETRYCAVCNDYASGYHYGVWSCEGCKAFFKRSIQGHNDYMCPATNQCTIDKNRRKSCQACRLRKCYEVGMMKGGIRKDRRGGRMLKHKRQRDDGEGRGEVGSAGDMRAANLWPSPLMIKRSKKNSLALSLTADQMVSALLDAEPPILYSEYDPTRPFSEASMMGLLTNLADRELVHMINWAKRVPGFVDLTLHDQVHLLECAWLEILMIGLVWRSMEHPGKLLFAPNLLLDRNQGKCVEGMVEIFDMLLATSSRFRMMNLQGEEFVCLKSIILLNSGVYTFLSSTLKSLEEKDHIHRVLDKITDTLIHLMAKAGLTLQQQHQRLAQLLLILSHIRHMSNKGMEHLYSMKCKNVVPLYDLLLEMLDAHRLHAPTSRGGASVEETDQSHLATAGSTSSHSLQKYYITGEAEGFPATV
Description: Figure 7 Compound 4631-P/1 disrupts the BRCA1/ER interaction in MCF-7 cells A., B. MCF-7 cells were incubated with the indicated with compound 4631-P/1 (1 or 20 μM) or vehicle only (DMSO) plus E2 (10 nM) for 24 hr; and the cells were harvested for immunoprecipitation of ER (A) or BRCA1 (B), followed by Western blotting for ER and BRCA1. As a negative control, cells treated with vehicle (DMSO) only were subjected to an IP with normal IgG. C. Unprecipitated lysates from cells treated as in panel A were subjected to Western blotting to detect BRCA1, ER, or actin (loading control). The data shown in each panel are representative of three independent experiments.
After the indicated treatments, cells were harvested, and whole cell extracts were prepared in IP buffer [10 mM Tris-HCl (pH 7.4), 150 mM NaCl, 1 mM EDTA, 1 mM EGTA, 1% Triton X-100, 0.5% IGEPAL CA-630 (Sigma), 10% glycerol, 1 mM sodium orthovanadate, and protease inhibitor cocktail (Santa Cruz)] [11, 18]. Each IP was carried out using 2-μg antibody and 500-μg extract protein. […] For each experiment, a control IP using an equal quantity of normal mouse or rabbit IgG (Santa Cruz) was carried out. […]

T1 sequence (P03372 whole entry): as the sequence (P03372 whole entry, one chain of several) above

effect on total levels of ER or BRCA1 ([2]; MCF-7, Western blotting of non-precipitated lysates)	SMILES	inhibition at 20 µM [1]	dissociation of the BRCA1: ER complex ([2]; MCF-7, E2 10 nM, compound 0, 1, 20 μM, 24 hr, IP-Western)
–	O=C(CC(c1ccccc1)N1CCCCC1)c1ccccc1 (stereo not drawn) [35446-L/1, 1,3-diphenyl-3-(piperidin-1-yl)propan-1-one]	> 90%	–
no effect	O=C(c1cc(Br)ccc1O)c1cc(Br)ccc1O [4631-P/1]	–	concentration-dependent dissociation of ER and BRCA1
